1 molecule from patent US20130059894A1, “PESTICIDAL COMPOSITION AND ITS USE” (SUMITOMO CHEMICAL COMPANY, LIMITED, priority 2010, published 2013) can be followed below.

For the experiment, the system named is Rhizoctonia solani. The experiment in a line: Soybean seed treatment test against disease caused by Rhizoctonia solani in contaminated soil. Format: in vivo, Rhizoctonia solani on soybean (variety: Natto shoryu). The following applies: seed treatment of soybean; carboxamide compound 0.2 g/100 kg of seeds alone (no sulfoxaflor); cultivated 20 days in soil contaminated by Rhizoctonia solani. Here is the method: A cyclohexanone solution (100 microL) containing prescribed amount (weight) of a test compound was applied on seeds of soybean (variety: Natto shoryu) (10 g) by using a rotary apparatus for seed treatment (Seed dresser, manufactured by Hans-Ulrich Hege GmbH). One day after the application, plastic pot was filled with soil contaminated by Rhizoctonia solani, and the seeds treated with the test compounds were seeded in the soil and cultivated in a glass-greenhouse for 20 days (hereinafter referred to as “treated plot”). Thereafter, the presence of disease caused by Rhizoctonia solani in the young plants which germinated from each seed was observed and disease severity was calculated according to the following calculation formula (1). On the other hand, seeds of soybean which are not treated as above were cultivated in the same way as above (hereinafter referred to as “non-treated plot”) and the disease severity in the “non-treated plot” was calculated in the same way as the above “treated plot”. On the basis of the above severity in “treated plot” and “non-treated plot”, efficacy in “treated plot” was evaluated according to the following calculation formula (2). […]

Structures are written as SMILES.

For `Cc1nn(C)c(C)c1C(=O)Nc1cccc2c1C(C)CC2(C)C` (stereo not shown) [carboxamide compound (5)], the “efficacy (%)” value was 15.8%.
